Test results: PubChem BioAssay (NCI)
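Tested at 5 concentrations; 48 h exposure; 96-well plates; endpoints linearly interpolated, else capped at highest concentration. Abbreviation: GI50, concentration required for 50% inhibition of growth. The concentration for full growth arrest is given as TGI.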

Columns and labels:
Assay in all cases: DTP human tumour cell line panel, 48 h
[1] = tested on: 786-0 renal
[2] = tested on: A498 renal
[3] = tested on: A549 NSCLC
[4] = tested on: ACHN renal
[5] = tested on: BT-549 breast
[6] = tested on: CAKI-1 renal
[7] = tested on: CCRF-CEM leukemia
[8] = tested on: COLO 205 colon
[9] = tested on: DU-145 prostate
[10] = tested on: EKVX NSCLC
[11] = tested on: HCC-2998 colon
[12] = tested on: HCT-116 colon
[13] = tested on: HCT-15 colon
[14] = tested on: HL-60(TB) leukemia
[15] = tested on: HOP-62 NSCLC
[16] = tested on: HOP-92 NSCLC
[17] = tested on: HS 578T breast
[18] = tested on: HT29 colon
[19] = tested on: IGROV1 ovarian
[20] = tested on: K-562 leukemia
[21] = tested on: KM12 colon
[22] = tested on: M14 melanoma
[23] = tested on: MALME-3M melanoma
[24] = tested on: MCF7 breast
[25] = tested on: MDA-MB-231 breast
[26] = tested on: MDA-MB-435
[27] = tested on: MDA-MB-468 breast
[28] = tested on: MOLT-4 leukemia
[29] = tested on: NCI-H226 lung
[30] = tested on: NCI-H23 lung
[31] = tested on: NCI-H460 lung
[32] = tested on: NCI-H522 lung
[33] = tested on: NCI/ADR-RES ovarian
[34] = tested on: OVCAR-3 ovarian
[35] = tested on: OVCAR-4 ovarian
[36] = tested on: OVCAR-5 ovarian
[37] = tested on: OVCAR-8 ovarian
[38] = tested on: PC-3 prostate
[39] = tested on: RPMI-8226 leukemia
[40] = tested on: RXF 393 renal
[41] = tested on: SF-268 CNS
[42] = tested on: SF-295 CNS
[43] = tested on: SF-539 CNS
[44] = tested on: SK-MEL-2 melanoma
[45] = tested on: SK-MEL-28 melanoma
[46] = tested on: SK-MEL-5 melanoma
[47] = tested on: SK-OV-3 ovarian
[48] = tested on: SN12C renal
[49] = tested on: SNB-19 CNS
[50] = tested on: SNB-75 CNS
[51] = tested on: SR leukemia
[52] = tested on: SW-620 colon
[53] = tested on: T-47D breast
[54] = tested on: TK-10 renal
[55] = tested on: U251 CNS
[56] = tested on: UACC-257 melanoma
[57] = tested on: UACC-62 melanoma
[58] = tested on: UO-31 renal
[59] = tested on: LOX IMVI melanoma

## COc1ccc2c(c1)c(-c1cc(N)n3nc(-c4cn(C)c5ccccc45)cc3n1)cn2C
[1]
  GI50: 1.55 µM
  TGI: 2.97 µM
[2]
  GI50: 1.76 µM
  TGI: 3.27 µM
[3]
  GI50: 1.81 µM
  TGI: 3.51 µM
[4]
  GI50: 1.65 µM
  TGI: 3.02 µM
[5]
  GI50: 1.87 µM
  TGI: 3.57 µM
[6]
  GI50: 1.71 µM
  TGI: 3.14 µM
[7]
  GI50: 0.864 µM
  TGI: 5.38 µM
[8]
  GI50: 1.92 µM
  TGI: 3.67 µM
[9]
  GI50: 2.05 µM
  TGI: 4.01 µM
[10]
  GI50: 1.46 µM
  TGI: 3.3 µM
[11]
  GI50: 2.09 µM
  TGI: 3.65 µM
[12]
  GI50: 1.16 µM
  TGI: 2.42 µM
[13]
  GI50: 1.04 µM
  TGI: 2.68 µM
[14]
  GI50: 1.4 µM
  TGI: 3.94 µM
[15]
  GI50: 1.73 µM
  TGI: 3.35 µM
[16]
  GI50: 1.76 µM
  TGI: 3.41 µM
[17]
  GI50: 2.18 µM
  TGI: 4.77 µM
[18]
  GI50: 1.86 µM
  TGI: 3.38 µM
[19]
  GI50: 1.73 µM
  TGI: 3.25 µM
[20]
  GI50: 0.401 µM
  TGI: 4.5 µM
[21]
  GI50: 2.1 µM
  TGI: 4.48 µM
[22]
  GI50: 1.85 µM
  TGI: 3.59 µM
[23]
  GI50: 1.7 µM
  TGI: 3.09 µM
[24]
  GI50: 0.934 µM
  TGI: 2.52 µM
[25]
  GI50: 1.82 µM
  TGI: 3.27 µM
[26]
  GI50: 1.76 µM
  TGI: 3.21 µM
[27]
  GI50: 1.67 µM
  TGI: 3.31 µM
[28]
  GI50: 1.69 µM
  TGI: 5.41 µM
[29]
  GI50: 2.04 µM
  TGI: 4.93 µM
[30]
  GI50: 1.97 µM
  TGI: 4.09 µM
[31]
  GI50: 1.9 µM
  TGI: 3.6 µM
[32]
  GI50: 1.65 µM
  TGI: 3.15 µM
[33]
  GI50: 2.03 µM
  TGI: 4.18 µM
[34]
  GI50: 1.94 µM
  TGI: 3.68 µM
[35]
  GI50: 1.82 µM
  TGI: 3.28 µM
[36]
  GI50: 1.95 µM
  TGI: 3.85 µM
[37]
  GI50: 1.88 µM
  TGI: 3.53 µM
[38]
  GI50: 1.8 µM
  TGI: 3.69 µM
[39]
  GI50: 2.08 µM
  TGI: 6.07 µM
[40]
  GI50: 1.85 µM
  TGI: 3.41 µM
[41]
  GI50: 1.97 µM
  TGI: 4.08 µM
[42]
  GI50: 1.78 µM
  TGI: 3.43 µM
[43]
  GI50: 1.7 µM
  TGI: 3.19 µM
[44]
  GI50: 1.7 µM
  TGI: 3.23 µM
[45]
  GI50: 1.8 µM
  TGI: 3.32 µM
[46]
  GI50: 1.81 µM
  TGI: 3.23 µM
[47]
  GI50: 1.92 µM
  TGI: 3.51 µM
[48]
  GI50: 1.66 µM
  TGI: 3.05 µM
[49]
  GI50: 2.18 µM
  TGI: 5 µM
[50]
  GI50: 1.43 µM
  TGI: 2.8 µM
[51]
  GI50: 0.288 µM
  TGI: 1.13 µM
[52]
  GI50: 1.8 µM
  TGI: 3.6 µM
[53]
  GI50: 1.94 µM
  TGI: 4.15 µM
[54]
  GI50: 1.91 µM
  TGI: 3.36 µM
[55]
  GI50: 1.84 µM
  TGI: 3.44 µM
[56]
  GI50: 1.77 µM
  TGI: 3.26 µM
[57]
  GI50: 1.73 µM
  TGI: 3.14 µM
[58]
  GI50: 1.59 µM
  TGI: 2.98 µM

## CC(=O)Oc1ccccc1C(=O)[Se]C(=NC(C)C)NC(C)C
[1]
  GI50: 1.74 µM
  TGI: 3.21 µM
[2]
  GI50: 3.34 µM
  TGI: 20.6 µM
[3]
  GI50: 3.08 µM
  TGI: > 100 µM
[4]
  GI50: 1.76 µM
  TGI: 3.16 µM
[5]
  GI50: 1.52 µM
  TGI: 2.88 µM
[6]
  GI50: 1.68 µM
  TGI: 3.05 µM
[7]
  GI50: 3.17 µM
  TGI: > 100 µM
[8]
  GI50: 2.35 µM
  TGI: 5.06 µM
[9]
  GI50: 1.94 µM
  TGI: 3.59 µM
[10]
  GI50: 1.67 µM
  TGI: 3.16 µM
[11]
  GI50: 1.86 µM
  TGI: 3.43 µM
[12]
  GI50: 1.6 µM
  TGI: 3.14 µM
[13]
  GI50: 1.84 µM
  TGI: 3.69 µM
[14]
  GI50: 2.18 µM
  TGI: 5.7 µM
[15]
  GI50: 0.777 µM
  TGI: 2.4 µM
[16]
  GI50: 1.91 µM
  TGI: 4.32 µM
[17]
  GI50: 2.4 µM
  TGI: 9.15 µM
[18]
  GI50: 2.31 µM
  TGI: 5.84 µM
[19]
  GI50: 1.72 µM
  TGI: 3.23 µM
[20]
  GI50: 2.84 µM
  TGI: 9.19 µM
[21]
  GI50: 1.9 µM
  TGI: 3.86 µM
[59]
  GI50: 1.75 µM
  TGI: 3.42 µM
[22]
  GI50: 1.84 µM
  TGI: 3.37 µM
[23]
  GI50: 1.86 µM
  TGI: 3.45 µM
[24]
  GI50: 1.95 µM
  TGI: 4 µM
[25]
  GI50: 2.16 µM
  TGI: 4.96 µM
[26]
  GI50: 1.73 µM
  TGI: 3.24 µM
[27]
  GI50: 1.75 µM
  TGI: 3.48 µM
[28]
  GI50: 2.35 µM
  TGI: 6.15 µM
[29]
  GI50: 1.84 µM
  TGI: 5.7 µM
[30]
  GI50: 1.94 µM
  TGI: 4.15 µM
[31]
  GI50: 0.815 µM
  TGI: 4.39 µM
[32]
  GI50: 1.69 µM
  TGI: 3.32 µM
[33]
  GI50: 2.22 µM
  TGI: 4.98 µM
[34]
  GI50: 1.9 µM
  TGI: 3.56 µM
[35]
  GI50: 1.72 µM
  TGI: 3.13 µM
[36]
  GI50: 1.76 µM
  TGI: 3.34 µM
[37]
  GI50: 1.87 µM
  TGI: 3.58 µM
[38]
  GI50: 1.7 µM
  TGI: 3.61 µM
[40]
  GI50: 1.72 µM
  TGI: 3.17 µM
[41]
  GI50: 2.34 µM
  TGI: 6.35 µM
[42]
  GI50: 0.369 µM
  TGI: 1.63 µM
[43]
  GI50: 1.75 µM
  TGI: 3.15 µM
[44]
  GI50: 1.97 µM
  TGI: 4.01 µM
[45]
  GI50: 1.79 µM
  TGI: 3.27 µM
[46]
  GI50: 1.83 µM
  TGI: 3.51 µM
[47]
  GI50: 1.81 µM
  TGI: 3.33 µM
[48]
  GI50: 1.72 µM
  TGI: 3.16 µM
[49]
  GI50: 1.09 µM
  TGI: 2.37 µM
[50]
  GI50: 1.35 µM
  TGI: 2.66 µM
[51]
  GI50: 2.11 µM
  TGI: 5.44 µM
[52]
  GI50: 1.92 µM
  TGI: 4.11 µM
[53]
  GI50: 2.2 µM
  TGI: 5.26 µM
[54]
  GI50: 1.63 µM
  TGI: 3.07 µM
[55]
  GI50: 1.53 µM
  TGI: 3.2 µM
[56]
  GI50: 1.96 µM
  TGI: 3.75 µM
[57]
  GI50: 1.94 µM
  TGI: 4.15 µM
[58]
  GI50: 1.68 µM
  TGI: 3.05 µM
